Data published in patent publication US20220023317A1, “PREVENTING OR MITIGATING CHEMOTHERAPY INDUCED ALOPECIA USING VITAMIN D” (Berg LLC, priority 2013, published 2022).

Columns and labels:
PC-3 = assay: Cell growth / viability assay; type: cell-based; details: 0.1 μg/mL calcitriol for two passages
Protocol: In these experiments, a selected commercial drug was serially diluted, starting at a concentration 4-times higher than the final desired concentration for cell incubation. […] The drug treatment period was usually three days. At the end of the three days, the background OD of the 96-well plate was read at 280 nm, before 20 μL of the “Substrate Cell Titer 96 Aqueous One Solution Reagent” (Promega) was added to each well. […] The net OD increase was calculated by subtracting the pre-substrate OD reading. The impact of the drug on the cells was calculated by comparing the OD at different concentrations in relation to the OD of the control wells (without the drug). The results of the Net OD as a function of drug concentration was plotted and used to determine ED50 values. […] Then these pretreated cells were utilized to set up the cell based assay.

BALB/c mice = details: cited from earlier work
HEKa cells [1] = assay: Real-time PCR Heat Shock Protein array, calcitriol-treated HEKa; type: cell-based, human; details: 0.1 μg/mL calcitriol, two independent experiments
Protocol: Changes in mRNA levels were evaluated using real-time PCR quantification to assess mRNA levels in preselected subsets containing 80 pathway specific targets (see Appendix). The PCR array analysis utilized two groups of genes—those related to Heat Shock Proteins (SABiosciences), and those related to Neuroscience Ion Channels and Transporters (SABioscience). Cell culture: Primary human epidermal keratinocytes (HEKa) were maintained in Epilife Medium (Cascade Biologics, Inc., Portland Oreg.) along with Human Keratinocyte Growth Supplement (Cascade Biologics, Inc., Portland Oreg.). […] D3 treatment of HEKa cells: […] Vehicle control group of cells were treated with 5 mL media containing 1 μL of ethanol. Cells were harvested 3, 6, 16, 24, 48, or 72 hours after the start of the treatment. RNA isolation: Cells were lysed for RNA isolation at different treatment times using the RNeasy Mini kit (Qiagen, Inc., Valencia Calif.) following the manufacturer's instructions. RNA was quantified by measuring optical density at 260 nm. First Strand Synthesis: […] Real-time PCR: Products from the first strand synthesis were diluted with water, mixed with the SYBR green master mix (SABiosciences., Frederick Md.) and loaded onto PCR arrays. Real time PCR was run on the PCR Arrays (Heat Shock Protein Arrays, and Neuroscience and Ion Channel Arrays) (SABiosciences, Frederick Md.) on a Biorad CFX96. Data analyses were performed using the PCR array data analysis software available on the SABiosciences website.

MIAC51 = assay: Cure / survival rate of chloroleukemic rats after chemotherapy; type: in vivo, rat; details: for Cured (number of rats): of 40
Protocol: On day 5 after birth all rats received 1×105 MIAC51 intraperitoneally in 0.1 mL of serum free (SF) RPMI. MIAC51 were cultured in RPMI 1640 supplemented with L-glutamine and 10% fetal bovine serum at […] in a 5% CO2, 100% humidity incubator. Cells were grown to 50% confluency (1.5×106 mL) collected in 50 mL conical tubes, centrifuged at 600 g for 10 minutes at room temperature and resuspended in SF-RPMI at a concentration of 1×10^6/mL prior to injection.

HEKa cells [2] = assay: Keratinocyte growth with calcitriol titration; type: cell-based, human; details: titration 0.008-2.0 μg/mL
Protocol: All experiments were conducted in 96-well plate format. Each well contained the same amount of HEKa cells in about 100 μL of media (usually between 2,000-5,000 cell/well). Calcitriol was dissolved in ethanol to make a stock solution. The stock solution was serially diluted 1:2 in the growth media, covering a range of between 4.0 μg/mL to about 15.5 ng/mL (9 test concentrations). […] All experiments were conducted in duplicates.

[3] = test system: squamous cell carcinoma and human prostate cell carcinoma; details: 2.5 μg calcitriol 3 doses daily for 3 days, followed by paclitaxel; cited from earlier work
C3H/HeJ mouse = assay: C3H/HeJ model of alopecia areata; type: in vivo; details: 0.2 μg for 15 days, observed 30 days
Protocol: C3H/HeJ Model of Abpecia Areata. Retired breeders (8 months of age) were observed daily for the development of AA lesions. […] One group received ethanol vehicle control whereas the other received 0.2 μg 1,25(OH)2D3 in the alopecic lesions for 15 days.

HEKa cells [4] = assay: Protection of HEKa cells by calcitriol against chemotherapeutic drugs; type: cell-based, human
Protocol: These include: erlotinib (Tarceva), an EGFR Tyr kinase inhibitor; gefutubib (Iressa), an EGFR Tyr kinase inhibitor; sorafenib, inhibitor of several Tyr kinases (Raf, VEGF-R2, c-kit, PDGR-R); Dasatinib, a BCR/ABL Tyr kinase inhibitor; and staurosporin, a relatively nonspecific kinase inhibitor.
The drug treatment period was usually three days. At the end of the three days, the background OD of the 96-well plate was read at 280 nm, before 20 μL of the “Substrate Cell Titer 96 Aqueous One Solution Reagent” (Promega) was added to each well. The plate was returned to the 37° C. incubator, and its OD at 490 nm was read each hour until an OD of approximately 1.5 was reached. The net OD increase was calculated by subtracting the pre-substrate OD reading.
The impact of the drug on the cells was calculated by comparing the OD at different concentrations in relation to the OD of the control wells (without the drug).

SKMEL-28 = assay: Cell growth / viability assay; type: cell-based
C57BL/6 mice = details: topical calcitriol; cited from earlier work
[5] = ADM + paclitaxel + etoposide, after two rounds
[6] = CTX + ADM + ARA-C, after two rounds
[7] = CTX + paclitaxel + etoposide, after two rounds
[8] = CTX, after two rounds of chemotherapy

C=C1/C(=C\C=C2/CCC[C@]3(C)[C@@H]([C@H](C)CCCC(C)(C)O)CC[C@@H]23)C[C@@H](O)C[C@@H]1O [Calcitriol, (1a.3B.5Z.7E)-9,10-secocholesta-5,7,10(19)-triene-1,3,25-triol]
response to doxorubicin, cisplatin, erlotinib after calcitriol exposure (PC-3): did not alter | protective effect in tumor-bearing male mice (BALB/c mice; injected with EMT-6 murine breast tumor cells): diminished | degree of CIA (BALB/c mice; male mice, topical 5 days prior to i.p. cyclophosphamide): significantly reduced the degree of CIA in a dose-dependent manner | DNAJC6 mRNA regulation pattern (HEKa cells [1]): Downregulated | HSF4 mRNA regulation pattern (HEKa cells [1]): Upregulated at 48 hours | HSPA2 mRNA regulation pattern (HEKa cells [1]): Upregulated at 48 hours | HSPB1 mRNA regulation pattern (HEKa cells [1]): Down regulated at 48 hours | % cured / survival rate (MIAC51; [5]): 80% | Cured (number of rats) (MIAC51; [5]): 32 | % cured / survival rate (MIAC51; [6]): 78% | Cured (number of rats) (MIAC51; [6]): 31 | % cured / survival rate (MIAC51; CTX + ADM, after two rounds): 50% | Cured (number of rats) (MIAC51; CTX + ADM, after two rounds): 20 | % cured / survival rate (MIAC51; [7]): 83% | Cured (number of rats) (MIAC51; [7]): 33 | % cured / survival rate (MIAC51; [8]): 25% | Cured (number of rats) (MIAC51; [8]): 10 | effect on efficacy of the chemotherapy agents (MIAC51; calcitriol 2 μg/mL): did not affect the efficacy of the chemotherapy agents | stimulation of HEKa cell growth (HEKa cells [2]; lowest levels of calcitriol): 10-20% | calcitriol concentration at which cell growth is inhibited (HEKa cells [2]): ≥ 1.0 µg/mL | tumor response [3]: significant tumor regression | regrowth of hair in alopecic lesions (C3H/HeJ mouse): No regrowth of hair | protective effect against 5-FU (HEKa cells [4]; 0.1 μg/mL calcitriol): mild protective effect | protective effect against doxorubicin (HEKa cells [4]; 0.1 μg/mL calcitriol): did not appear to provide a significant protective effect | protective effect against gemcitabine (HEKa cells [4]; 0.1 μg/mL calcitriol): mild protective effect | protective effect against irinotecan (HEKa cells [4]; 0.1 μg/mL calcitriol): positive protective effect | protective effect against paclitaxel (HEKa cells [4]; 0.1 μg/mL calcitriol): some protective effects | protective effect against tamoxifen (HEKa cells [4]; 0.1 μg/mL calcitriol): weak | interaction (synergy) between calcitriol and drugs tested (HEKa cells [4]; 0.1 μg/mL calcitriol premixed with 15 drugs, three days): no interaction | protection against alkylating agents cisplatin and carboplatin (HEKa cells [4]; 0.1 μg/mL calcitriol, low dosage levels): moderate level of protection | protective effect against kinase inhibitor drugs (HEKa cells [4]; 0.1 μg/mL calcitriol, erlotinib, gefitinib, sorafenib, dasatinib, staurosporin at low drug dosage): provided certain growth stimulation and protected the HEKa cells | effect of calcitriol on cell growth (SKMEL-28): no significant growth promoting or growth inhibiting effects | effect of calcitriol on cytotoxic effect of Doxorubicin (SKMEL-28): did not appear to appreciably alter | 5-FU ED50 curve with vs without calcitriol (SKMEL-28; 0.1 μg/mL calcitriol supplement): not significantly different | follicular apoptosis induced by cyclophosphamide (C57BL/6 mice): significantly diminish the degree of follicular apoptosis
